Measured values as given in PMC4958397, “Synthesis, antibacterial and antiproliferative potential of some new 1-pyridinecarbonyl-4-substituted thiosemicarbazide derivatives” (Medicinal Chemistry Research, 2016).
In brackets after ≈: the same amount, converted by molar mass.

How the values were obtained:
[1] = system: Lactobacillus acidophilus PCM 210; assay: Disk diffusion, zone of bacterial growth inhibition; assay type: cell-based; conditions: Lactobacillus acidophilus, PCM210, 100 μg of compound, read-out: Zone of bacterial growth inhibition, L.a
From the text: (§1) Panel reference strains of bacteria from the American Type Culture Collection or Polish Collection of Microorganisms, including aerobic Gram-positive bacteria: Staphylococcus aureus ATCC 25923 and Staphylococcus epidermidis ATCC 12228, and aerobic Gram-negative bacteria: Escherichia coli ATCC 25922 and Pseudomonas aeruginosa ATCC 9027, as well as microaerobic Gram-positive bacteria: Lactobacillus spp., Lactobacillus acidophilus PCM 2105, Streptococcus mutans PCM 2502 and Streptococcus sanguinis PCM 2335, were used. Microbial suspensions with an optical density of 0.5 McFarland standard at 1.5 × 10^8 CFU/mL (CFU: colony forming unit) were prepared in sterile 0.9 % NaCl. Mueller–Hinton (M–H) broth and M–H agar (Oxoid Ltd., England) for aerobic strains, and MRS Broth Lactobacillus, MRS Agar Lactobacillus (BioMaxima S.A., Poland), BHI Broth and BHI agar (BioMaxima S.A., Poland) for microaerobic strains were used in the microbial tests.
(§2) The preliminary antibacterial activity of the carbazide derivatives against human pathogenic Gram-positive, Gram-negative aerobic and microaerobic bacteria was evaluated by measuring the zones of inhibition in the disk diffusion method (Murray et al., [1995]). Each compound (100 µg) was placed on Petri plates with agar medium (previously inoculated with 0.5 McFarland standards with the tested bacterial strains). After 18 h of incubation at 37 °C (for aerobic strains) or 40 h at 35 °C (for microaerobic strains), zones of microbial growth produced around the tested substances were measured and recorded as the diameters of inhibition.

[2] = system: Pseudomonas aeruginosa ATCC 9027; assay: as above; assay type: cell-based; conditions: Pseudomonas aeruginosa, ATCC9027, 100 μg of compound, read-out: Zone of bacterial growth inhibition, P.a
From the text: as §1, §2

[3] = system: Escherichia coli ATCC 25922; assay: as above; assay type: cell-based; conditions: Escherichia coli, ATCC25922, 100 μg of compound, read-out: Zone of bacterial growth inhibition, E.c
From the text: as §1, §2

[4] = system: Staphylococcus epidermidis ATCC 12228; assay: as above; assay type: cell-based; conditions: Staphylococcus epidermidis, ATCC12228, 100 μg of compound, read-out: Zone of bacterial growth inhibition, S.e
From the text: as §1, §2

[5] = system: Streptococcus mutans PCM 2502; assay: as above; assay type: cell-based; conditions: Streptococcus mutans, PCM2502, 100 μg of compound, read-out: Zone of bacterial growth inhibition, S.m
From the text: as §1, §2

[6] = system: Staphylococcus aureus ATCC 25923; assay: as above; assay type: cell-based; conditions: Staphylococcus aureus, ATCC25923, 100 μg of compound, read-out: Zone of bacterial growth inhibition, S.a
From the text: as §1, §2

[7] = system: Lactobacillus spp.; assay: as above; assay type: cell-based; conditions: Lactobacillus, 100 μg of compound, read-out: Zone of bacterial growth inhibition, L.spp.
From the text: as §1, §2

[8] = system: Streptococcus sanguinis PCM 2335; assay: as above; assay type: cell-based; conditions: Streptococcus sanguinis, PCM2335, 100 μg of compound, read-out: Zone of bacterial growth inhibition, S.s
From the text: as §1, §2

[9] = system: Lactobacillus acidophilus PCM 210; assay: Broth microdilution MIC; assay type: cell-based; conditions: for MIC: Lactobacillus acidophilus, PCM210, NA means inactive, read-out: Minimum inhibitory concentration (MIC), L. acidophilus
[10] = system: Pseudomonas aeruginosa ATCC 9027; assay: Broth microdilution MIC; assay type: cell-based; conditions: Pseudomonas aeruginosa, ATCC9027, NA means inactive, read-out: Minimum inhibitory concentration (MIC), P. aeruginosa
From the text: as §1
(§3) A broth microdilution method was used to evaluate the minimum inhibition concentration (MIC) according to the CLSI document (CLSI performance standards for antimicrobial susceptibility testing, 2008, Eighteenth International Supplement, CLSI document M7-MIC, Clinical Laboratory Standards Institute, Wayne) with some modifications. […] A serial doubling dilution of the compounds was prepared in 96-well plates (200 μL per well). A suitable medium (M-H Broth, MRS Broth Lactobacillus, BHI Broth) was used as a diluent. The final concentrations of derivatives were 1000–0.015 μg/mL. Finally, 2 μL of inoculum of the tested bacterial strain (1.5 × 10^8 CFU/mL) was added to each well. The tests were performed either at 36 °C for 18 h (aerobic strains) or at 40 h (microaerobic strains). After incubation, the panel was digitally analyzed at 600 nm using the microplate reader Bio Tech Synergy (USA) with a dedicated software system. The growth intensity in each well was compared with the negative and positive controls.

[11] = system: Escherichia coli ATCC 25922; assay: Broth microdilution MIC; assay type: cell-based; conditions: NA means inactive; for MIC: Escherichia coli, ATCC25922, broth microdilution, read-out: Minimum inhibitory concentration (MIC), E. coli; for Minimum inhibitory concentration (MIC), E. coli: broth microdilution
From the text: as §1, §3

[12] = system: Staphylococcus epidermidis ATCC 12228; assay: Broth microdilution MIC; assay type: cell-based; conditions: Staphylococcus epidermidis, ATCC12228, NA means inactive, read-out: Minimum inhibitory concentration (MIC), S. epidermidis
From the text: as §1, §3

[13] = system: Streptococcus mutans PCM 2502; assay: Broth microdilution MIC; assay type: cell-based; conditions: Streptococcus mutans, PCM2502, NA means inactive, read-out: Minimum inhibitory concentration (MIC), S. mutans
From the text: as §1, §3

[14] = system: Staphylococcus aureus ATCC 25923; assay: Broth microdilution MIC; assay type: cell-based; conditions: Staphylococcus aureus, ATCC25923, NA means inactive, read-out: Minimum inhibitory concentration (MIC), S. aureus
From the text: as §1, §3

[15] = system: Streptococcus sanguinis PCM 2335; assay: Broth microdilution MIC; assay type: cell-based; conditions: Streptococcus sanguinis, PCM2335, NA means inactive, read-out: Minimum inhibitory concentration (MIC), S. sanguinis
From the text: as §1, §3

[16] = system: aerobic Gram-positive bacteria; assay: Broth microdilution MIC, summary in text; assay type: cell-based; conditions: range over compounds and strains; read-out: MIC against aerobic Gram-positive bacteria
From the text: as §1, §3

[H]/N=C(\N/C(=N/[H])NCCCCCCNC(=N)NC(=N)Nc1ccc(Cl)cc1)Nc1ccc(Cl)cc1 [CLX, chlorhexidine digluconate, reference compound]
zone of inhibition at 100 µg/disc [1]: 24 mm
zone of inhibition at 100 µg/disc [2]: 16 mm
zone of inhibition at 100 µg/disc [3]: 15 mm
zone of inhibition at 100 µg/disc [4]: 23 mm
zone of inhibition at 100 µg/disc [5]: 26 mm
zone of inhibition at 100 µg/disc [6]: 23 mm
zone of inhibition at 100 µg/disc [7]: 24 mm
zone of inhibition at 100 µg/disc [8]: 29 mm
MIC [9]: 0.976 µg/mL
MIC [10]: 15.6 µg/mL
MIC [11]: 0.488 µg/mL
MIC [12]: 0.488 µg/mL
MIC [13]: 0.488 µg/mL
MIC [14]: 0.488 µg/mL
MIC [15]: 7.81 µg/mL

O=C(NNC(=S)Nc1ccccc1Cl)c1ccccn1 [Compound 2, 4-(2-Chlorophenyl)-1-(pyridin-2-yl)carbonylthiosemicarbazide]
melting point: 172 to 174 °C
zone of inhibition at 100 µg/disc [1]: 16 mm
zone of inhibition at 100 µg/disc [2]: 4 mm
zone of inhibition at 100 µg/disc [3]: 20 mm
zone of inhibition at 100 µg/disc [4]: 25 mm
zone of inhibition at 100 µg/disc [5]: 24 mm
zone of inhibition at 100 µg/disc [6]: 17 mm
zone of inhibition at 100 µg/disc [7]: 24 mm
zone of inhibition at 100 µg/disc [8]: 0 mm
MIC [9]: 62.5 µg/mL (≈ 204 µM)
MIC [10]: 1000 µg/mL
MIC [11]: 62 to 125 µg/mL
Minimum inhibitory concentration (MIC), E. coli [11]: 62.5 µg/mL
MIC [12]: 31.2 µg/mL
MIC [13]: 250 µg/mL
MIC [14]: 31.2 µg/mL
MIC [15]: 250 µg/mL
MIC [16]: 15.6 to 500 µg/mL

O=C(NNC(=S)Nc1ccc(Cl)cc1Cl)c1ccccn1 [Compound 4, 4-(2,4-Dichlorophenyl)-1-(pyridin-2-yl)carbonylthiosemicarbazide]
melting point: 158 to 160 °C
zone of inhibition at 100 µg/disc [1]: 20 mm
zone of inhibition at 100 µg/disc [2]: 14 mm
zone of inhibition at 100 µg/disc [3]: 20 mm
zone of inhibition at 100 µg/disc [4]: 27 mm
zone of inhibition at 100 µg/disc [5]: 35 mm
zone of inhibition at 100 µg/disc [6]: 22 mm
zone of inhibition at 100 µg/disc [7]: 24 mm
zone of inhibition at 100 µg/disc [8]: 25 mm
MIC [9]: 31.2 µg/mL (≈ 91.6 µM)
MIC [10]: 500 µg/mL
MIC [11]: 62 to 125 µg/mL
Minimum inhibitory concentration (MIC), E. coli [11]: 62.5 µg/mL
MIC [12]: 31.2 µg/mL
MIC [13]: 31.2 µg/mL
MIC [14]: 31.2 µg/mL
MIC [15]: 7.81 µg/mL
MIC [16]: 15.6 to 500 µg/mL

CSc1ccc(NC(=S)NNC(=O)c2cccnc2)cc1 [Compound 6, 4-(4-Methylthiophenyl)-1-(pyridin-3-yl)carbonylthiosemicarbazide]
melting point: 176 to 177 °C
zone of inhibition at 100 µg/disc [1]: 0 mm
zone of inhibition at 100 µg/disc [2]: 0 mm
zone of inhibition at 100 µg/disc [3]: 9 mm
zone of inhibition at 100 µg/disc [4]: 9 mm
zone of inhibition at 100 µg/disc [5]: 11 mm
zone of inhibition at 100 µg/disc [6]: 10 mm
zone of inhibition at 100 µg/disc [7]: 0 mm
zone of inhibition at 100 µg/disc [8]: 19 mm
MIC [9]: > 1000 µg/mL
Minimum inhibitory concentration (MIC), L. acidophilus ([9]; NA means inactive): did not limit the growth
MIC [10]: > 1000 µg/mL
MIC [11]: 62 to 125 µg/mL
Minimum inhibitory concentration (MIC), E. coli [11]: 62.5 µg/mL
MIC [12]: 500 µg/mL
MIC [13]: 250 µg/mL
MIC [14]: 250 µg/mL
MIC [15]: 15.6 µg/mL
MIC [16]: 15.6 to 500 µg/mL

O=C(NNC(=S)Nc1ccc(Cl)cc1Cl)c1cccnc1 [Compound 7, 4-(2,4-Dichlorophenyl)-1-(pyridin-3-yl)carbonylthiosemicarbazide]
melting point: 196 to 197 °C
zone of inhibition at 100 µg/disc [1]: 5 mm
zone of inhibition at 100 µg/disc [2]: 0 mm
zone of inhibition at 100 µg/disc [3]: 9 mm
zone of inhibition at 100 µg/disc [4]: 10 mm
zone of inhibition at 100 µg/disc [5]: 24 mm
zone of inhibition at 100 µg/disc [6]: 0 mm
zone of inhibition at 100 µg/disc [7]: 7 mm
zone of inhibition at 100 µg/disc [8]: 10 mm
MIC [9]: > 1000 µg/mL
MIC [10]: > 1000 µg/mL
MIC [11]: > 1000 µg/mL
MIC [12]: 500 µg/mL
MIC [13]: 500 µg/mL
MIC [14]: > 1000 µg/mL
MIC [15]: 1000 µg/mL

CCOc1ccc2nc3cc(N)ccc3c(N)c2c1 [Ethacridine lactate, ethacridine lactate, reference compound]
zone of inhibition at 100 µg/disc [1]: 15 mm
zone of inhibition at 100 µg/disc [2]: 4 mm
zone of inhibition at 100 µg/disc [3]: 12 mm
zone of inhibition at 100 µg/disc [4]: 8 mm
zone of inhibition at 100 µg/disc [5]: 24 mm
zone of inhibition at 100 µg/disc [6]: 10 mm
zone of inhibition at 100 µg/disc [7]: 10 mm
zone of inhibition at 100 µg/disc [8]: 24 mm
MIC [9]: 31.2 µg/mL
MIC [10]: 125 µg/mL
MIC [11]: 15.6 µg/mL
MIC [12]: 31.2 µg/mL
MIC [13]: 62.5 µg/mL
MIC [14]: 31.2 µg/mL
MIC [15]: 31.2 µg/mL
